# Data from patent US6969449B2, “Multi-well plate and electrode assemblies for ion channel assays” (Vertex Pharmaceuticals (San Diego) LLC, priority 2000, dated 2005).
# What was measured:
# HL5 cells = format: cell-based
# IRK1 channel = IRK1 channel (Rattus norvegicus, UniProt Q64273)
# IRK1 channel, sequence (Q64273 whole entry): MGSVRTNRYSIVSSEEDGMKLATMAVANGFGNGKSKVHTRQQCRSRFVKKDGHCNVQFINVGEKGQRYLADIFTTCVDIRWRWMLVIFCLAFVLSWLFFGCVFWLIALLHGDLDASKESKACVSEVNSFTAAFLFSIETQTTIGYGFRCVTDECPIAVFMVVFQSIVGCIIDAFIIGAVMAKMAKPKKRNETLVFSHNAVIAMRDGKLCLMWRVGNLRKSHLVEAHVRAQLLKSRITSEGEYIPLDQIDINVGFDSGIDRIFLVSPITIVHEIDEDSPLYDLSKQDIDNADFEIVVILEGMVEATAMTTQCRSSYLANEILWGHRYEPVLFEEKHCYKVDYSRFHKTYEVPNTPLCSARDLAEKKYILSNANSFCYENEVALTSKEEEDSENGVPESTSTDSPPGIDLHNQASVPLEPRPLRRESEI
compound,measurement,setting,value
"NC1=N[C@H](O)[C@H]2[C@H]3O[C@]4(O)O[C@@H]([C@@H](O)[C@@]2(N1)[C@@H]4O)[C@]3(O)CO [TTX, tetrodotoxin]",block of the positive response,HL5 cells,partially blocks the positive response
same,effect on sustained signal above 50 V/cm,HL5 cells,unaffected
"CC[N+](CC)(CC)CC [TEA, Tetraethylammonium]",block of response to electrical stimulation,wild-type HEK-293 cells,partially blocks the response
[Ba+2].[Cl-].[Cl-] [barium chloride],voltage change during stimulation with barium block,IRK1 channel,no detectable voltage change
